# Measured values taken from patent US10160744B2, “Quinoline compounds suitable for treating disorders that respond to the modulation of the serotonin 5-HT6 receptor” (Abbvie Deutschland GmbH & Co. KG, priority 2016, dated 2018).
# pKi: −log10 of the molar value. Counter-ions that a name gives are not always drawn.
# How the values were obtained:
# [1] = Metabolic stability in human liver microsomes (microsomal clearance); format: in vitro ADME; settings: pH 7.4; human liver microsomes 0.25 mg protein/mL, 0.5 μM compound, NADPH, 37° C.; read-out: mClint
# Method: Samples of the tested compounds (0.5 μM) were preincubated together with human liver microsomes (0.25 mg of microsomal protein/mL) in 0.05 M potassium phosphate buffer of pH 7.4 in microtiter plates at 37° C. for 5 minutes. The reaction was started by adding NADPH (1.0 mM). After 0, 5, 10, 15, 20 and 30 minutes, an aliquot was removed, the reaction was cooled and stopped by adding twice the amount of quench solution consisting of acetonitrile/methanol 1:1, and containing 0.2 μM carbutamide as internal standard. The samples were frozen until analyzed. The remaining concentration of undegraded test substance was determined by liquid chromatography-tandem mass spectrometry (LC-MS/MS). The half-life (t1/2) was determined from the gradient of the ratio of the signal of (test substance/internal standard)/unit time plot, allowing the calculation of the half-life of the test substance, assuming first order kinetics, from the decrease in the concentration of the compound with time. The microsomal clearance (mClint) was calculated as follows: mClint=((ln(2)/t 1/2)/Microsomal Protein Concentration (mg/ml))*1000, leading to the unit of μL/min/mg.
# h-5-HT6 receptor = biological target: T1, h-5-HT6 receptor (Homo sapiens, UniProt P50406); experiment: 5-HT6 receptor binding assay (displacement of [3H]-LSD); settings: cloned human 5-HT6 receptor, HEK293 membranes, 1 nM [3H]-LSD
# T1 construct: expressed in transfected cells
# Method: Displacement of radioligands binding to the following cloned human receptors
# 1. Preparation of Membranes by Ultrasonic Treatment and Differential Centrifugation
# Cells from stable clonal cell lines expressing the corresponding receptor (5-HT6, α1-adrenergic, dopamine D2 or histamine H1 receptors) were washed with PBS (w/o Ca^++, Mg^++) and harvested in PBS with 0.02% EDTA. The cells were collected by centrifugation at 500 g for 10 min. at 4° C., washed with PBS and centrifuged (500 g, 10 min. 4° C.). The pellets were stored at −80° C. until use. For membrane preparation, the thawed cell pellet was resuspended in ice-cold sucrose buffer (0.25 M sucrose, 10 mM Hepes (pH 7.4), 1 mM Phenylmethylsulfonyl fluoride (PMSF) in DMSO, 5 μg/ml Pepstatin-A, 3 mM EDTA, 0.025% Bacitracin) and homogenized with a Branson Sonifier W-250 (Settings: Timer 4; Output Control 3; Duty Cycle constant; 2 to 3 cycles). Cell disruption was checked with the aid of a microscope. Remaining unbroken cells were pelleted at 1.000 g for 10 min. at 4° C. The sucrose buffer supernatant was then centrifuged at 60.000 g for 1 h at 4° C. (Beckman Ultrazentrifuge XL 80). The pellet was resuspended in 30 ml ice-cold Tris buffer (20 mM TRIS (pH 7.4), 5 μg/ml Pepstatin A, 0.1 mM PMSF, 3 mM EDTA) by pipetting through a 10 ml serological pipet and centrifuged for 1 h at 4° C. at 60.000 g. A final resuspension was performed in a small volume of ice-cold Tris buffer (see above) by pressing through a serological pipet followed by ultrasonic treatment with a Branson Sonifier W-250 (Settings: Timer 1; Output Control 3; Duty Cycle constant; 1 cycle). Protein concentration was determined (BCA-Kit; Pierce) and aliquots stored at −80° C. or in liquid nitrogen for long-term storage.
# 2. Receptor Binding Experiments
# All receptor binding experiments were carried out in the corresponding assay buffer in a total volume of 200 μl in the presence of various concentrations of test compound (10^−5 M to 10^−9 M, tenfold serial dilution, duplicate determinations). The assays were terminated by filtration on polyethylenimine (PEI 0.1% or 0.3%) presoaked Packard Unifilter Plates (GF/C or GF/B) with a Tomtec MachIII U 96 well-plate harvester. After the plates had been dried for 2 h at 55° C. in a drying chamber scintillation cocktail (BetaPlate Scint; PerkinElmer) was added. Radioactivity was measured in a Microbeta Trilux two hours after the addition of the scintillation mixture. Data derived from liquid scintillation counting were analysed by iterative non-linear regression analysis with the use of the Statistical Analysis System (SAS): a program similar to “LIGAND” as described by Munson and Rodbard (Analytical Biochemistry 107, 220-239 (1980).
# a) 5-HT6 Receptor Binding Assay
# HEK293 cells stably expressing the h-5-HT6 receptor (NCBI Reference Sequence XM 001435) were cultured in RPMI1640 medium supplemented with 25 mM HEPES, 10% fetal calf serum and 1-2 mM glutamine. The membrane preparation was performed as described in section 1. […] Non-specific binding was defined with 1 μM methiothepin. The binding reaction was carried out for 3.5 h at room temperature. During the incubation, the plates were shaken on a plate shaker at 100 rpm and terminated by filtration on Packard Unifilter GF/C (0.1% PEI) plates, followed by 2 wash cycles with ice-cold 50 mM Tris-HCl, 5 mM CaCl2.
# Data derived from liquid scintillation counting were analyzed by iterative non-linear regression analysis with the use of the Statistical Analysis System (SAS): a program similar to “LIGAND” as described by Munson and Rodbard (Anal. Biochem. 1980, 107, 220-239). Fitting was performed according to formulae described by Feldman (Anal. Biochem. 1972, 48, 317-338). IC50, nH and Ki values were expressed as geometrical mean.
# T1 sequence (P50406 whole entry): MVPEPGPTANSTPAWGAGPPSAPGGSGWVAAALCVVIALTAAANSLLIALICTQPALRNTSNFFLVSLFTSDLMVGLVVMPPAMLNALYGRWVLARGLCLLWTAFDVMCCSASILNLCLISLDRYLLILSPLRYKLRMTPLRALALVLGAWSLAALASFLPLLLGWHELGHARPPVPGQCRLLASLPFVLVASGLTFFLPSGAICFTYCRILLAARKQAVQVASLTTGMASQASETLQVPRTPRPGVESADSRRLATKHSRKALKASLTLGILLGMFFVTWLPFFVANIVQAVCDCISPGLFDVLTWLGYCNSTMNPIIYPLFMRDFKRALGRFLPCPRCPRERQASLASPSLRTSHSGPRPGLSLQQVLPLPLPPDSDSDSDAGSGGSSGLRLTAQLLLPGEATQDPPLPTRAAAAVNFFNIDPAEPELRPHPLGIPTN
SMILES,microsomal CLint at 0.5 μM [1],pKi (h-5-HT6 receptor)
"O=S(=O)(c1cccc(C(F)(F)F)c1)c1cnc2c(N3CC[C@@H](O)C3)cccc2c1 [Example 19, (3R)-1-[3-[3-(Trifluoromethyl)phenyl]sulfonyl-8-quinolyl]pyrrolidin-3-ol]",30 to 60 µL/min/mg,7.00 to 8.00
"O=S(=O)(c1cccc(F)c1)c1cnc2c(N3CCC(O)CC3)cccc2c1 [Example 9, 1-[3-(3-Fluorophenyl)sulfonyl-8-quinolyl]piperidin-4-ol]",< 30 µL/min/mg,> 8.00
"O=C(O)C1CCN(c2cccc3cc(S(=O)(=O)c4cccc(OC(F)F)c4)cnc23)CC1 [Example 31, 1-[3-[3-(Difluoromethoxy)phenyl]sulfonyl-8-quinolyl]piperidine-4-carboxylic Acid]",< 30 µL/min/mg,7.00 to 8.00
"COc1ccccc1S(=O)(=O)c1cnc2c(N3CC(O)C3)cccc2c1 [Example 39, 1-[3-(2-Methoxyphenyl)sulfonyl-8-quinolyl]azetidin-3-ol]",60 to 120 µL/min/mg,7.00 to 8.00
"Cc1ccc(O)c(S(=O)(=O)c2cnc3c(N4CCC(O)CC4)cccc3c2)c1 [Example 28, 1-[3-(2-Hydroxy-5-methyl-phenyl)sulfonyl-8-quinolyl]piperidin-4-ol]",30 to 60 µL/min/mg,7.00 to 8.00
"O=C(O)C1CCN(c2cccc3cc(S(=O)(=O)c4ccccc4)cnc23)CC1 [Example 37, 1-[3-(Benzenesulfonyl)-8-quinolyl]piperidine-4-carboxylic Acid]",< 30 µL/min/mg,7.00 to 8.00
"COc1cccc(S(=O)(=O)c2cnc3c(N4CCC(O)CC4)cccc3c2)c1 [Example 13, 1-[3-(3-Methoxyphenyl)sulfonyl-8-quinolyl]piperidin-4-ol]",60 to 120 µL/min/mg,> 8.00
"O=S(=O)(c1cccc(N2CCC(O)CC2)c1)c1cnc2c(F)cccc2c1 [Example 24, 1-[3-[(8-Fluoro-3-quinolyl)sulfonyl]phenyl]piperidin-4-ol]",60 to 120 µL/min/mg,7.00 to 8.00
"CC1(O)CCN(c2cccc3cc(S(=O)(=O)c4cccc(C(F)(F)F)c4)cnc23)CC1 [Example 7, 4-Methyl-1-[3-[3-(trifluoromethyl)phenyl]sulfonyl-8-quinolyl]piperidin-4-ol Hydrochloride]",60 to 120 µL/min/mg,> 8.00
"O=S(=O)(c1ccccc1)c1cnc2c(N3CCC(O)CC3)cccc2c1 [Example 18, 1-[3-(Benzenesulfonyl)-8-quinolyl]piperidin-4-ol]",< 30 µL/min/mg,> 8.00
"O=S(=O)(c1ccccc1)c1cnc2c(N3CC[C@@H](O)[C@@H](O)C3)cccc2c1 [Example 41, (3S,4R)-1-[3-(Benzenesulfonyl)-8-quinolyl]piperidine-3,4-diol]",< 30 µL/min/mg,> 8.00
"O=C(O)C1CN(c2cccc3cc(S(=O)(=O)c4cccc(C(F)(F)F)c4)cnc23)C1 [Example 44, 1-[3-[3-(Trifluoromethyl)phenyl]sulfonyl-8-quinolyl]azetidine-3-carboxylic Acid]",< 30 µL/min/mg,7.00 to 8.00
"O=S(=O)(c1cccc(OC(F)F)c1)c1cnc2c(N3CCC(O)CC3)cccc2c1 [Example 29, 1-[3-[3-(Difluoromethoxy)phenyl]sulfonyl-8-quinolyl]piperidin-4-ol]",< 30 µL/min/mg,> 8.00
"O=S(=O)(c1cccc(C(F)(F)F)c1)c1cnc2c(N3CCC(O)C3)cccc2c1 (stereo not shown) [Example 2, 1-[3-(3-Trifluoromethyl-benzenesulfonyl)-quinolin-8-yl]-pyrrolidin-3-ol]",60 to 120 µL/min/mg,> 8.00
"O=S(=O)(c1ccccc1)c1cnc2c(N3C[C@@H](O)[C@H](O)C3)cccc2c1 [Example 45, (3R,4R)-1-[3-(Benzenesulfonyl)-8-quinolyl]pyrrolidine-3,4-diol]",< 30 µL/min/mg,> 8.00
"O=S(=O)(c1cccc(C(F)(F)F)c1)c1cnc2c(N3CCC[C@H](O)C3)cccc2c1 [Example 4, (S)-1-[3-(3-Trifluoromethyl-benzenesulfonyl)-quinolin-8-yl]-piperidin-3-ol Hydrochloride]",60 to 120 µL/min/mg,> 8.00
"O=S(=O)(c1cccc(F)c1)c1cnc2c(N3CC(O)C3)cccc2c1 [Example 10, 1-[3-(3-Fluorophenyl)sulfonyl-8-quinolyl]azetidin-3-ol]",30 to 60 µL/min/mg,> 8.00
"O=C(O)C1CCN(c2cccc3cc(S(=O)(=O)c4cccc(C(F)(F)F)c4)cnc23)CC1 [Example 3, 1-[3-(3-Trifluoromethyl-benzenesulfonyl)-quinolin-8-yl]-piperidine-4-carboxylic Acid]",< 30 µL/min/mg,> 8.00
"O=S(=O)(c1ccccc1)c1cnc2c(N3C[C@@H](O)[C@@H](O)C3)cccc2c1 [Example 42, (3R,4S)-1-[3-(Benzenesulfonyl)-8-quinolyl]pyrrolidine-3,4-diol]",< 30 µL/min/mg,> 8.00
"O=S(=O)(c1ccccc1)c1cnc2c(N3C[C@H](O)C[C@H](O)C3)cccc2c1 [Example 36, (3R,5S)-1-[3-(Benzenesulfonyl)-8-quinolyl]piperidine-3,5-diol]",< 30 µL/min/mg,> 8.00
"O=S(=O)(c1ccccc1)c1cnc2c(N3C[C@H](O)[C@@H](O)C3)cccc2c1 [Example 32, (3S,4S)-1-[3-(Benzenesulfonyl)-8-quinolyl]pyrrolidine-3,4-diol]",30 to 60 µL/min/mg,> 8.00
"COc1ccccc1S(=O)(=O)c1cnc2c(N3CCC(O)CC3)cccc2c1 [Example 21, 1-[3-(2-Methoxyphenyl)sulfonyl-8-quinolyl]piperidin-4-ol]",60 to 120 µL/min/mg,7.00 to 8.00
"COc1cccc(S(=O)(=O)c2cnc3c(N4CCC(C(=O)O)CC4)cccc3c2)c1 [Example 15, 1-[3-(3-Methoxyphenyl)sulfonyl-8-quinolyl]piperidine-4-carboxylic Acid]",< 30 µL/min/mg,6.30 to 7.00
"O=S(=O)(c1cccc(F)c1)c1cnc2c(N3CCC[C@@H](O)C3)cccc2c1 [Example 20, (3R)-1-[3-(3-Fluorophenyl)sulfonyl-8-quinolyl]piperidin-3-ol]",30 to 60 µL/min/mg,> 8.00
"O=S(=O)(c1ccccc1)c1cnc2c(N3CC[C@H](O)C3)cccc2c1 [Example 30, (3S)-1-[3-(Benzenesulfonyl)-8-quinolyl]pyrrolidin-3-ol]",60 to 120 µL/min/mg,> 8.00
"O=S(=O)(c1cccc(N2CCC(O)CC2)c1)c1cnc2c(N3CCC(O)CC3)cccc2c1 [Example 16, 1-[3-[[8-(4-Hydroxy-1-piperidyl)-3-quinolyl]sulfonyl]phenyl]piperidin-4-ol]",30 to 60 µL/min/mg,7.00 to 8.00
